Measurements taken from patent publication US20110124574A1, “RESTORATION OF ESTROGEN RECEPTOR-(ALPHA) ACTIVITY” (priority 2008, published 2011).
Where no end group is shown, it is not given here. The star is where a group is joined. For = O=C*

B1: recombinant Wnt-3a: recombinant Wnt-3a protein (R&D Systems), specificity control (protein, UniProt P56704 19-352, looked up)
Protein Wnt-3a: SYPIWWSLAVGPQYSSLGSQPILCASIPGLVPKQLRFCRNYVEIMPSVAEGIKIGIQECQHQFRGRRWNCTTVHDSLAIFGPVLDKATRESAFVHAIASAGVAFAVTRSCAEGTAAICGCSSRHQGSPGKGWKWGGCSEDIEFGGMVSREFADARENRPDARSAMNRHNNEAGRQAIASHMHLKCKCHGLSGSCEVKTCWWSQPDFRAIGDFLKDKYDSASEMVVEKHRESRGWVETLRPRYTYFKVPTERDLVYYEASPNFCEPNPETGSFGTRDRTCNVSSHGIDGCDLLCCGRGHNARAERRREKCRCVFHWCCYVSCQECTRVYDVHTCK

Tested on: ERα
Experiment: ERα protein expression by Western blot in stimulated MDA-MB-231 cells
Type: cell-based, human
Conditions: stimulation 24 and 48 hours, rWnt-5a 0.6 μg/ml, rWnt-3a 0.1 μg/ml, peptides 100 μM
Description: Breast cancer cells were grown in 6 well plates, and stimulated with recombinant Wnt-5a protein (rW5a), the Wnt-5a derived Foxy-5 peptide (F5), recombinant Wnt-3a protein (rW3a), or a formylated random hexapeptide (Rdm) for 24 or 48 h. Following treatment cells were lysed and subjected to SDS-PAGE, transferred to nitrocellulose membranes and blotted for ERα expression. A: MDA-MB-231 cells stimulated with recombinant Wnt-5a, Foxy-5, Wnt-3a, Rdm. B: MDA-MB-468 cells stimulated with recombinant Wnt-5a or Foxy-5. C: 4T1 cells stimulated with recombinant Wnt-5a or Foxy-5. Positive controls (Pos) were included in order to confirm the correct band size for ERα. Two different positive controls were used: T47D cell lysates known to express ERα and MDA-MB-231 cells transiently transfected with a full length ERα plasmid, resulting in extremely high ERα expression (top row, right panel, third row, right panel).
Stimulation of cells was performed with recombinant Wnt-5a (0.6 μg/ml) and recombinant Wnt-3a (0.1 μg/ml and in a control experiment, 0.6 μg/ml) (R&D Systems Abington, UK) for times as indicated. The Wnt-5a derived formylated hexapeptide, Foxy-5 (formyl-MDGCEL) (SEQ. ID. NO. 1) designed in the laboratory of the inventors, and a formylated random hexapeptide (formyl-MSADVG) (SEQ: ID: NO: 16) were either synthesized by Pepscan Presto (Lelystad, The Netherlands) or Inbiolabs (Tallinn, Estonia). The peptides were purified by RP-HPLC and mass spectrometry, and the >95% pure peptides were synthesized three times. Cells were treated with Foxy-5 or random peptide at a concentration of 100 μM for times as indicated. All other chemicals if not otherwise stated were purchased from Sigma Chemicals (St. Louis, Mo.).
Cells were lysed in Triton lysis buffer (50 mM Tris (pH7.5), 1% Triton x-100, 140 mM NaCl, 0.5 mM EDTA, 0.5 MgCl2, 10 mM NaF) with the addition of fresh leupeptin (1 μg/ml), Pefabloc (2 mM), aprotinin (20 μg/ml) and Na3VO4 (4 mM). […] Scanning and densitometry was performed using a Bio-Rad (Hercules Calif.) GS-800 densitometer with Quantity One software. […]

| Molecule | levels of ERα protein |
| --- | --- |
| For-MSADVG [formylated random hexapeptide, reference compound] | Neither of these stimulations resulted in increased levels |
| B1 | Neither of these stimulations resulted in increased levels |
